# Assay results published in PubChem BioAssay AID1918957 (Molecular Pharmacology Branch, DTP, NCI, 2023).
# System: NCI-H1876 complex spheroid viability
# Assay: Anticancer human tumor NCI-H1876 cell line growth inhibition [LSD1];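 further: spheroids exposed to compounds for one week before readout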;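 on viability, T/C: 100% = DMSO vehicle-treated spheroids so lower means fewer viable cells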
# Details: for IC50: curve of first compound; for viability, T/C: stronger effect = lower value
# Method in brief: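 Multicellular complex spheroids of tumor cells with human endothelial cells (HUVEC) and mesenchymal stem cells; the LSD1 inhibitor iadademstat was combined with standard-of-care or investigational agents. Top concentration at or near clinical Cmax, half-log dilutions; final DMSO ≤0.25%.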
# [1] = second compound 0.1 µM, first compound 0.0316 µM
# [2] = second compound 0.1 µM, first compound 0.1 µM
# [3] = second compound 0.1 µM, first compound 0.316 µM
# [4] = second compound 0.1 µM, first compound 1 µM
# [5] = second compound 0.1 µM, first compound 3.16 µM
# [6] = second compound 0.1 µM, first compound 10 µM
# [7] = second compound 0.316 µM, first compound 0.0316 µM
# [8] = second compound 0.316 µM, first compound 0.1 µM
# [9] = second compound 0.316 µM, first compound 0.316 µM
# [10] = second compound 0.316 µM, first compound 1 µM
# [11] = second compound 0.316 µM, first compound 3.16 µM
# [12] = second compound 0.316 µM, first compound 10 µM
# [13] = second compound 1 µM, first compound 0.0316 µM
# [14] = second compound 1 µM, first compound 0.1 µM
# [15] = second compound 1 µM, first compound 0.316 µM
# [16] = second compound 1 µM, first compound 1 µM
# [17] = second compound 1 µM, first compound 3.16 µM
# [18] = second compound 1 µM, first compound 10 µM
# [19] = second compound 3.16 µM, first compound 0.0316 µM
# [20] = second compound 3.16 µM, first compound 0.1 µM
# [21] = second compound 3.16 µM, first compound 0.316 µM
# [22] = second compound 3.16 µM, first compound 1 µM
# [23] = second compound 3.16 µM, first compound 3.16 µM
# [24] = second compound 3.16 µM, first compound 10 µM
# [25] = second compound 10 µM, first compound 0.0316 µM
# [26] = second compound 10 µM, first compound 0.1 µM
# [27] = second compound 10 µM, first compound 0.316 µM
# [28] = second compound 10 µM, first compound 1 µM
# [29] = second compound 10 µM, first compound 3.16 µM
# [30] = second compound 10 µM, first compound 10 µM
# [31] = second compound 0.1 µM, first compound 0.00949 µM
# [32] = second compound 0.1 µM, first compound 0.03 µM
# [33] = second compound 0.1 µM, first compound 0.0949 µM
# [34] = second compound 0.1 µM, first compound 0.3 µM
# [35] = second compound 0.316 µM, first compound 0.00949 µM
# [36] = second compound 0.316 µM, first compound 0.03 µM
# [37] = second compound 0.316 µM, first compound 0.0949 µM
# [38] = second compound 0.316 µM, first compound 0.3 µM
# [39] = second compound 1 µM, first compound 0.00949 µM
# [40] = second compound 1 µM, first compound 0.03 µM
# [41] = second compound 1 µM, first compound 0.0949 µM
# [42] = second compound 1 µM, first compound 0.3 µM
# [43] = second compound 3.16 µM, first compound 0.00949 µM
# [44] = second compound 3.16 µM, first compound 0.03 µM
# [45] = second compound 3.16 µM, first compound 0.0949 µM
# [46] = second compound 3.16 µM, first compound 0.3 µM
# [47] = second compound 10 µM, first compound 0.00949 µM
# [48] = second compound 10 µM, first compound 0.03 µM
# [49] = second compound 10 µM, first compound 0.0949 µM
# [50] = second compound 10 µM, first compound 0.3 µM
smiles,measurement,setting,value
CC1(C)CCC(CN2CCN(c3ccc(C(=O)NS(=O)(=O)c4ccc(NCC5CCOCC5)c([N+](=O)[O-])c4)c(Oc4cnc5[nH]ccc5c4)c3)CC2)=C(c2ccc(Cl)cc2)C1 + NC1CC1c1ccc(-c2cccc(O)c2)cc1,IC50,second compound 0.1 µM,2.08 µM
same,IC50,second compound 0.316 µM,2.08 µM
same,IC50,second compound 1 µM,2.17 µM
same,IC50,second compound 3.16 µM,2.06 µM
same,IC50,second compound 10 µM,1.92 µM
same,"viability, T/C",[1],111%
same,"viability, T/C",[2],110%
same,"viability, T/C",[3],117%
same,"viability, T/C",[4],108%
same,"viability, T/C",[5],16.6%
same,"viability, T/C",[6],6.77%
same,"viability, T/C",[7],97.1%
same,"viability, T/C",[8],85.9%
same,"viability, T/C",[9],122%
same,"viability, T/C",[10],110%
same,"viability, T/C",[11],19.3%
same,"viability, T/C",[12],7.99%
same,"viability, T/C",[13],99.5%
same,"viability, T/C",[14],103%
same,"viability, T/C",[15],105%
same,"viability, T/C",[16],111%
same,"viability, T/C",[17],23.3%
same,"viability, T/C",[18],7.5%
same,"viability, T/C",[19],113%
same,"viability, T/C",[20],122%
same,"viability, T/C",[21],105%
same,"viability, T/C",[22],99.8%
same,"viability, T/C",[23],20.6%
same,"viability, T/C",[24],8.68%
same,"viability, T/C",[25],112%
same,"viability, T/C",[26],120%
same,"viability, T/C",[27],110%
same,"viability, T/C",[28],89.2%
same,"viability, T/C",[29],19.8%
same,"viability, T/C",[30],6.33%
CC1COCCN1c1cc(C2(S(C)(=N)=O)CC2)nc(-c2ccnc3[nH]ccc23)n1 (stereo not given) + NC1CC1c1ccc(-c2cccc(O)c2)cc1,IC50,second compound 0.1 µM,6.86 µM
same,IC50,second compound 0.316 µM,6.54 µM
same,IC50,second compound 1 µM,6.88 µM
same,IC50,second compound 3.16 µM,6.24 µM
same,IC50,second compound 10 µM,5.61 µM
same,"viability, T/C",[1],110%
same,"viability, T/C",[2],114%
same,"viability, T/C",[3],112%
same,"viability, T/C",[4],111%
same,"viability, T/C",[5],94.4%
same,"viability, T/C",[6],28.4%
same,"viability, T/C",[7],119%
same,"viability, T/C",[8],111%
same,"viability, T/C",[9],113%
same,"viability, T/C",[10],118%
same,"viability, T/C",[11],88.5%
same,"viability, T/C",[12],27.5%
same,"viability, T/C",[13],124%
same,"viability, T/C",[14],119%
same,"viability, T/C",[15],118%
same,"viability, T/C",[16],111%
same,"viability, T/C",[17],96.1%
same,"viability, T/C",[18],28%
same,"viability, T/C",[19],114%
same,"viability, T/C",[20],126%
same,"viability, T/C",[21],120%
same,"viability, T/C",[22],111%
same,"viability, T/C",[23],78.4%
same,"viability, T/C",[24],30.3%
same,"viability, T/C",[25],112%
same,"viability, T/C",[26],112%
same,"viability, T/C",[27],114%
same,"viability, T/C",[28],99.8%
same,"viability, T/C",[29],70.8%
same,"viability, T/C",[30],29.4%
CCN(c1cc(-c2ccc(CN3CCOCC3)cc2)cc(C(=O)NCc2c(C)cc(C)[nH]c2=O)c1C)C1CCOCC1 + NC1CC1c1ccc(-c2cccc(O)c2)cc1,IC50,second compound 0.1 µM,> 3 µM
same,IC50,second compound 0.316 µM,> 3 µM
same,IC50,second compound 1 µM,> 3 µM
same,IC50,second compound 3.16 µM,> 3 µM
same,IC50,second compound 10 µM,> 3 µM
same,"viability, T/C",[31],110%
same,"viability, T/C",[32],109%
same,"viability, T/C",[33],110%
same,"viability, T/C",[34],99.6%
same,"viability, T/C","second compound 0.1 µM, first compound 0.949 µM",86.6%
same,"viability, T/C","second compound 0.1 µM, first compound 3 µM",54.8%
same,"viability, T/C",[35],102%
same,"viability, T/C",[36],106%
same,"viability, T/C",[37],102%
same,"viability, T/C",[38],94.1%
same,"viability, T/C","second compound 0.316 µM, first compound 0.949 µM",77.3%
same,"viability, T/C","second compound 0.316 µM, first compound 3 µM",54.1%
same,"viability, T/C",[39],111%
same,"viability, T/C",[40],112%
same,"viability, T/C",[41],104%
same,"viability, T/C",[42],102%
same,"viability, T/C","second compound 1 µM, first compound 0.949 µM",88.2%
same,"viability, T/C","second compound 1 µM, first compound 3 µM",60%
same,"viability, T/C",[43],109%
same,"viability, T/C",[44],108%
same,"viability, T/C",[45],107%
same,"viability, T/C",[46],97.5%
same,"viability, T/C","second compound 3.16 µM, first compound 0.949 µM",83.8%
same,"viability, T/C","second compound 3.16 µM, first compound 3 µM",57.8%
same,"viability, T/C",[47],106%
same,"viability, T/C",[48],99.9%
same,"viability, T/C",[49],111%
same,"viability, T/C",[50],100%
same,"viability, T/C","second compound 10 µM, first compound 0.949 µM",79.9%
same,"viability, T/C","second compound 10 µM, first compound 3 µM",55.3%
Nc1ncn(C2CC(O)C(CO)S2)c(=O)n1 (stereo not given) + NC1CC1c1ccc(-c2cccc(O)c2)cc1,IC50,second compound 0.1 µM,> 0.3 µM
same,IC50,second compound 0.316 µM,> 0.3 µM
same,IC50,second compound 1 µM,> 0.3 µM
same,IC50,second compound 3.16 µM,0.289 µM
same,IC50,second compound 10 µM,> 0.3 µM
same,"viability, T/C","second compound 0.1 µM, first compound 0.000949 µM",115%
same,"viability, T/C","second compound 0.1 µM, first compound 0.003 µM",111%
same,"viability, T/C",[31],99.4%
same,"viability, T/C",[32],91.2%
same,"viability, T/C",[33],71%
same,"viability, T/C",[34],51.3%
same,"viability, T/C","second compound 0.316 µM, first compound 0.000949 µM",120%
same,"viability, T/C","second compound 0.316 µM, first compound 0.003 µM",110%
same,"viability, T/C",[35],99.7%
same,"viability, T/C",[36],86.4%
same,"viability, T/C",[37],73.1%
same,"viability, T/C",[38],54.4%
same,"viability, T/C","second compound 1 µM, first compound 0.000949 µM",110%
same,"viability, T/C","second compound 1 µM, first compound 0.003 µM",106%
same,"viability, T/C",[39],103%
same,"viability, T/C",[40],90.1%
same,"viability, T/C",[41],79.4%
same,"viability, T/C",[42],54.8%
same,"viability, T/C","second compound 3.16 µM, first compound 0.000949 µM",106%
same,"viability, T/C","second compound 3.16 µM, first compound 0.003 µM",103%
same,"viability, T/C",[43],104%
same,"viability, T/C",[44],89%
same,"viability, T/C",[45],72.1%
same,"viability, T/C",[46],49.1%
same,"viability, T/C","second compound 10 µM, first compound 0.000949 µM",107%
same,"viability, T/C","second compound 10 µM, first compound 0.003 µM",100%
same,"viability, T/C",[47],97.2%
same,"viability, T/C",[48],96.3%
same,"viability, T/C",[49],69.2%
same,"viability, T/C",[50],50.4%
